Assay results published in patent US12678475B2, “Compositions and methods for treating and preventing lung disease” (ARIZONA BOARD OF REGENTS ON BEHALF OF THE UNIVERSITY OF …, priority 2016, dated 2026).

Columns and labels:
[1] = tested on: SP-A deficient mice challenged in the HDM model; test: HDM model in SP-A deficient mice, therapeutic SP-A peptides; assay type: in vivo; conditions: peptide given 24 hrs after the last challenge; for eosinophilia in the lavage compartment: compared to vehicle treated mice (FIG. 3A); for mucin production: compared to vehicle treated mice (FIG. 3B)
Protocol: FIGS. 3A and 3B show the analysis of inflammation in mice that receive “therapeutic” SP-A peptides in the HDM model. Mice were sensitized and challenged in the HDM model according to common methods. Twenty-four hours after the last challenge, mice received either vehicle, a 20-mer or a 10-mer that encompassed the active site containing 223Q. BAL cellularity (left panel) and mucin production (right panel) were assessed 7 days post challenge to assess the role of SP-A on allergic airways resolution. […] Both 223Q and 223K mice are somewhat protected in the acute phase of this model.

[2] = tested on: WT C57BL/6 mice, HDM model; test: Methacholine-induced airway hyper-responsiveness (AHR) in HDM model; assay type: in vivo; conditions: 25 mg/mouse in 40 ml saline oropharyngeal 24 h after each challenge, 3-5 days post HDM challenge, vs vehicle
Protocol: Twenty-four hours after each challenge, mice received either scrambled vehicle or a 10-mer SP-A peptide (KEQCVEMYTD (SEQ ID NO: 4)) (arrow) that encompassed the active site containing 223Q (at a physiologic dose of […] delivered in […] of sterile saline) by oropharyngeal instillation. Pulmonary function tests were conducted 3-5 days post HDM challenge to determine if the SP-A peptide could protect from methacholine-induced airway hyper-responsiveness (AHR). Mice that received the SP-A peptide after HDM challenge had attenuated: overall resistance (Rrs) and central airways resistance (Rn) as compared to HDM challenged mice that received vehicle treatment.

[3] = tested on: WT C57BL/6 mice challenged with IL-13; test: Methacholine-induced airway hyper-responsiveness (AHR) in IL-13 model; assay type: in vivo; conditions: IL-13 model (3.9 ug IL-13 daily, 3 days); oropharyngeal 2 h after each challenge; 24 hours post IL-13 challenge; vs vehicle
Protocol: WT C57BL/6 mice were challenged with 3.9 ug of IL-13 (arrow) once a day for 3 consecutive days via oropharyngeal instillation. […] Pulmonary function tests were conducted 24 hours post IL-13 challenge to determine if the SP-A peptide could protect from methacholine-induced airway hyper-responsiveness (AHR). Mice that received the SP-A peptide after HDM challenge had attenuated: overall resistance (Rrs) and central airways resistance (Rn) as compared to HDM challenged mice that received vehicle treatment.

[4] = tested on: human airway epithelial cells; test: IL-13 exposure of airway epithelial cells from asthmatics at air liquid interface, MUC5AC by RT-PCR; assay type: cell-based
Protocol: Airway epithelial cells at ALI from two asthmatic subjects exposed to IL-13 alone, and IL-13 plus SP-A2 peptide that include the Gln at position 223 in the lectin domain (2230). Full-length oligomeric SP-A that is homozygous at position 223Q/Q was used as a positive control. After 48 hours incubation, MUCSAC expression was determined by RT-PCR
Experiments were conducted wherein airway epithelial cells from two subjects with asthma not on controller therapy were cultured at air liquid interface for two weeks. In separate conditions the cells were exposed to each peptide at 50 ng/ml for 30 minutes followed by IL-13 at 50 ng/ml and incubated for 48 hours. Cells were placed in Trizol MUCSAC was determined by RT-PCR. […] The 10 AA length is especially useful as a therapeutic agent as its size renders it able to be packaged into an inhaler type of device for delivery to the airways.
Regarding FIG. 8, human bronchial epithelial cells obtained from a well-phenotyped asthmatic were grown at an ALI for two weeks prior to experimentation. For challenge, each of the SP-A test peptides (50 μg/ml) were added to the apical compartment at least 30 minutes prior to IL-13 challenge. Muc5AC was analyzed by RT-PCR from cell lysates and analyzed as a fold over the control samples. Peptide sequences: 20-mer […] (SEQ ID NO: 8), peptide 1 PAGRGKEQCV (SEQ ID NO: 2), peptide 2 EMYTDGQWND (SEQ ID NO: 3), peptide 3 KEQCVEMYTD (SEQ ID NO: 4) FL=full length oligomeric SP-A that is extracted from lavage of alveolar proteinosis individuals.

[5] = tested on: WT C57BL/6 mice, house dust mite (HDM) model; test: House dust mite (HDM) model in WT C57BL/6 mice, mucin production and BAL eosinophilia; assay type: in vivo; conditions: WT C57BL/6, HDM days 0, 7, 14; 25 μg/mouse oropharyngeal 24 h after last challenge (FIGS. 5, 6)
Protocol: Regarding FIG. 5, WT C57BL/6 mice were sensitized and challenged in the house dust mite (HDM) model according to standard methods on days 0, 7, 14 (black arrows). Twenty-four hours after the last challenge, mice received either scrambled vehicle or a 20-mer SP-A peptide (dotted arrow) that encompassed the active site containing 223Q (at a physiologic dose of 25 μg/mouse delivered in 40 μl of sterile saline) by oropharyngeal instillation. Lung histological sections were analyzed for mucin production as assessed by PAS stain/scoring to determine if the SP-A peptide could protect from HDM-induced airway mucin production. […] Peptide sequence: […] (SEQ ID NO: 8).
Regarding FIG. 6, WT C57BL/6 mice were sensitized and challenged in the house dust mite (HDM) model according to standard methods on days 0, 7, 14 as shown in FIG. 5 (black arrows). […] Lung histological sections were analyzed for mucin production as assessed by PAS stain/scoring to determine if the SP-A peptide could protect from HDM-induced airway mucin production. […]
Regarding FIG. 7, WT C57BL/6 mice were sensitized and challenged in the house dust mite (HDM) model according to standard methods on days 0, 7, 14 as shown in FIG. 5 (black arrows). […] Bronchoalveolar lavage samples were analyzed for eosinophilia to determine if the SP-A peptide could protect from HDM-induced airway eosinophilia by decreasing eosinophil viability. […]

[6] = tested on: eosinophils; test: In vitro studies with isolated eosinophils; assay type: cell-based
[7] = airway epithelial cells from asthmatic subjects with allergic or type 2 asthma

| Substance | eosinophilia in the lavage compartment [1] | mucin production [1] | central airways resistance (Rn) [2] | overall resistance (Rrs) [2] | central airways resistance (Rn) [3] | overall resistance (Rrs) [3] | MUCSAC expression (RT-PCR) ([4]; cells from two asthmatic subjects at ALI, peptide 50 ng/ml 30 minutes, then IL-13 50 ng/ml, 48 hours (FIG. 4)) | mucin production (PAS stain/scoring) [5] | IL-6 induced by IL-13 [4, 7] | mucin induced by IL-13 [4, 7] | eosinophil apoptosis [6] |
| --- | --- | --- | --- | --- | --- | --- | --- | --- | --- | --- | --- |
| KEQCVEMYTD (listed as Homo sapiens) [SEQ ID NO: 4] | significantly less eosinophilia | less mucin production | attenuated | attenuated | attenuated | attenuated | attenuates | – | – | – | – |
| PAGRGKEQCVEMYTDGQWND (listed as Homo sapiens) [SEQ ID NO: 8] | significantly less eosinophilia | less mucin production | – | – | – | – | – | reduce mucin production | – | – | – |
| SP-A: Surfactant protein-A, a secreted lipoprotein complex; full length oligomeric SP-A extracted from lavage of alveolar proteinosis individuals | – | – | – | – | – | – | – | – | attenuates | attenuates | directly stimulates eosinophil apoptosis |
